Source: patent publication US20190091174A1, “METHOD OF REDUCING SEIZURE TYPE E[…] A DRAVET PATIENT” (ZOGENIX INTERNATIONAL LIMITED, priority 2017, published 2019)

Columns and labels:
[1] = system: patients with Dravet syndrome; assay: Study 1 (ZX008-1501/1502): Phase 3, double-blind, placebo-controlled, liquid fenfluramine formulation added to current antiepileptic drugs; assay type: in vivo, human; settings: end of the T+M Period
Method: The first 119 subjects to be randomized in both identical studies combined were analyzed and reported as Study 1 (FIG. 1), covered by a Statistical Analysis Plan (SAP).
Primary and key secondary endpoints in the Study 1 SAP were pre-determined. All patients were treated twice per day over a period of 14 weeks using an oral syringe to administer the formulation. The treatment period included a two-week titration period and a 12-week maintenance period.
The initial results of Study 1 are outlined below. The randomized, double blind, placebo controlled, Phase 3 study enrolled 119 patients across sites in the United States, Canada, Europe and Australia. The median age of patients was 8 years, the mean age of patients was 9 years (range, 2-18 years) (FIG. 2).
Patients were titrated to their target dose over two weeks, and then remained at that fixed dose for 12 weeks. The mean baseline convulsive seizure frequency across the study groups was approximately 40 seizures per month. 110 (92%) patients completed the study (85% 0.8 mg/kg/day; 100% 0.2 mg/kg/day; 93% placebo). […]
The mean number of convulsive seizure free days, defined as a day for which diary data are available and no convulsive seizures have been reported, was determined for each treatment group during the Baseline and T+M Periods. […]

[2] = system: patients with Dravet syndrome; settings: long-term fenfluramine treatment; cited from earlier work

Structure (SMILES): CCNC(C)Cc1cccc(C(F)(F)F)c1 (racemic) [Fenfluramine, 3-trifluoromethyl-N-ethylamphetamine]
- reduction from Baseline in non-convulsive seizures (all types), % [SD] ([1]; 0.2 mg/kg/day): 9.7% (140.46)
- reduction from Baseline in non-convulsive seizures (all types), % [SD] ([1]; 0.8 mg/kg/day): 59.1% (40.14)
- heart valve defects monitored by echocardiography [2]: No clinically relevant defects
- incidence of all types of seizures [2]: effectively reduced the incidence of all types of seizures
- seizure-free condition, share of test subjects [2]: 66.6%
